From patent publication US20150293109A1, “Fluorescent Chemical Dye for Visualization of Neural Stem Cell Symmetric and Asymmetric Division” (NATIONAL UNIVERSITY OF SINGAPORE, priority 2012, published 2015) come the findings set out here.

Common to all, as to type: cell-based, mouse
For data set [1], the system named is neurospheres. Kind of data set: Differentiation potential of neurospheres generated from CDy5bright and CDy5dim cells. Particulars: mean±SD of duplicates. The procedure: Single neurospheres were plated onto glass coverslips coated with laminin and poly-L-lysine and cultured in bFGF/EGF-depleted neurosphere culture medium containing 5% fetal bovine serum. The differentiated cells were fixed with 4% paraformaldehyde and stained using primary antibodies: Tuj1 (Covance), glial fibrillary acidic protein (GFAP) (Dako), and O4 (Millipore), and appropriate secondary antibodies: Alexa Fluor 488 goat anti-mouse, Alexa Fluor 594 goat anti-mouse and Alexa Fluor 647 donkey anti-rabbit (Life Technologies), respectively. Tuj1 was used as a marker for neurons, GFAP was used as a marker for astrocytes and 04 was used as a marker for oligodendrocytes.
When the neurospheres were randomly differentiated in a medium containing only FBS, and immunostained against astrocyte, neuron and oligodendrocyte markers as described above, more numbers of neurospheres generated from CDy5^bright cells differentiated into all three types of cells than those from CDy5^dim cells. The CDy5^bright cells differentiated into 30±4% uni-potent cells, 26±1 bi-potent cells and 44±3 tri-potent cells. The CDy5^dim cells differentiated into 47±6 uni-potent cells, 22±1 bi-potent cells and 31±7 tri-potent cells. Data represent mean±standard deviation (SD) of duplicates.

Data set [2] has as its system neurosphere cells. Kind of data set: Neurosphere assay of FACS-sorted CDy5bright and CDy5dim cells. As to conditions: FACS-sorted cells, 3,000 cells per well, six days of culture. The procedure: The method of detecting a stem cell in a sample can further comprise distinguishing between a neural stem cell and a differentiated neural cell in the sample. For example, when a mouse neurosphere was treated with CDy5, cytoplasmic staining of a distinct cell population within the neurosphere was observed (FIG. 1). The so-called CDy5^bright cells, those visible in the right panel of FIG. 1, emitted a signal that was substantially greater than the signal emitted by the so-called CDy5^dim cells. […] In the experiment described above, a cell was considered to be a CDy5^dim cell if no signal could be detected by fluorescence microscopy, or the signal detected was not substantially greater than background signal.
Dissociated neurosphere cells were cultured in a complete neurosphere culture medium containing 2 μM CDy5 for six days. They were dissociated for single cell imaging, live cell time-lapse imaging and clonal neurosphere imaging. […]
To examine the relationship between stemness and CDy5 staining, CDy5^bright and CDy5^dim neurosphere cells were sorted and collected by FACS and separately resuspended in neurosphere culture medium and plated in triplicate in […] culture plates at a density of 3,000 cells per well. […] After six days of culture, the number of neurospheres was counted manually under a microscope.

Data set [3] deals with dissociated neurosphere cells. As to the kind of experiment: Cytotoxicity assay: number of neurospheres grown in the presence of CDy5. As to conditions: for number of neurospheres: vehicle control 189±40. The procedure:
(§1) To assess the effects of CDy5 and AC inhibitors on neurosphere formation, dissociated neurosphere cells were plated in 12-well culture plates at a density of 1,000 cells per well and cultures in the presence of 2 μM or 4 μM CDy5 or 0.01 to 10 μM AC inhibitor. For vehicle control, DMSO was added to a volume of 0.1%. The IC50 values were calculated using GraphPad Prism software.
(§2) Whether CDy5 exerts adverse effects on proliferation and differentiation of neural stem cells was also assessed using a neurosphere assay and multipotency test. For cytotoxicity assay, dissociated neurosphere cells were plated in triplicate in 6-well culture plates at a density of 1,000 cells per well and cultured in the presence of 2 μM or 4 μM CDy5. For vehicle control, 0.1% DMSO was added. After six days, the number of neurospheres was determined.

For data set [4], the system named is neurospheres. As to the kind of experiment: Multipotency test of neurospheres generated in the presence of CDy5. Particulars: neurospheres generated in the presence of CDy5, differentiated in 5% FBS. The procedure:
as §2
The single neurospheres generated in the presence of CDy5 and normal medium were then plated onto glass coverslips coated with laminin and poly-L-lysine, cultured in medium containing 5% fetal bovine serum and allowed to undergo differentiation. The differentiated cells were immunostained using antibodies raised against markers of astrocyte, neuron and oligodendrocyte to classify the neurospheres into uni-, bi- and tri-potent depending on the number of positively stained cell types. The control group contained 55±6% unipotent neurospheres, 29±3% bipotent neurospheres and 16±3% tripotent neurospheres. The CDy5 group contained 49±1% unipotent neurospheres, 31±4% bipotent neurospheres and 20±3% tripotent neurospheres. These are very similar ratios of differentiation potential of neurospheres between control and CDy5 groups.

Data set [5] has as its system dissociated neurosphere cells. As to the kind of experiment: Neurosphere formation in the presence of AC inhibitors. As to conditions: 1,000 cells per well, 0.01 to 10 μM AC inhibitor, neurospheres counted, read-out: IC50 of inhibition of neurosphere formation. The procedure: Mouse brains harvested from E14.5 fetuses were digested with 0.25% trypsin/1mM EDTA solution for 30 minutes at 37° C. The tissues were triturated sequentially with a 10-mL pipette, a 1-mL pipette and a 0.2-mL pipette in medium containing 10% fetal bovine serum (FBS). The dissociated cells were washed 3 times with PBS by repeated resuspension and centrifugation, and filtered through a 40-μm strainer. The obtained single cells were plated in DMEM/F12 medium containing 10 ng/mL bFGF, 20 ng/mL EGF and B27 without vitamin A, and cultured for 7-10 days without changing the medium.
as §1
Ceranib-2 was developed as a ceramidase inhibitor by screening ˜50,000 small molecules and chemical optimization of a lead compound. It inhibits cancer cell growth in vivo as well as in vitro (21).

Data set [6] deals with neurospheres. Kind of data set: Dye retention in stained neurospheres after paraformaldehyde fixation and methanol extraction. Particulars: 4% paraformaldehyde fixation followed by absolute methanol. An excerpt: To determine if CDy5 forms a covalent bond with a protein, neurospheres stained with CDy5 and Hoechst 33342 were fixed using 4% paraformaldehyde followed by absolute methanol, which extracts organic dyes bound to their targets by noncovalent bonding. Both CDy5 and Hoechst signals were detected when observed after fixation with paraformaldehyde.

[7] abbreviates: neurospheres from CDy5bright cells.
The mark [8] stands for this setting: neurospheres from CDy5dim cells.

In general, IC50 refers to the point on the concentration scale where inhibition reaches its midpoint.

Read-outs that look alike come from different tables or passages of the source.

In data set [1] (setting [7]), `CN(CCNC(=O)CCl)c1ccc2c(-c3cccc(CN4CCOCC4)c3)c3ccc(=N)cc-3oc2c1` [CDy5] had a bi-potent of 26±1%, a tri-potent of 44±3% and a uni-potent of 30±4%. In data set [1] (setting [8]), this compound displayed a bi-potent of 22±1%, a tri-potent of 31±7% and a uni-potent of 47±6%. In data set [2], the “times more neurospheres from CDy5bright cells than from CDy5dim cells” value is reported as “more than 10 times”. Also, the “number of neurospheres compared to vehicle-added control group” value in data set [3] (2 μM and 4 μM CDy5, six days of culture) was “not significantly different”. The number of neurospheres in data set [3] (medium containing 2 μM CDy5) is listed as 229±72. Further, the number of neurospheres in data set [3] (medium containing 4 μM CDy5) turned out to be 228±83. The tripotent neurospheres in data set [4] (control 16±3%) is given as 20±3%. For the same compound, in data set [4] (control 29±3%), the bipotent neurospheres is 31±4%. Besides, the unipotent neurospheres in data set [4] (control 55±6%) came out at 49±1%.
Turning to `CCCCCCNC(=O)n1cc(F)c(=O)[nH]c1=O` [Carmofur], the IC50 in data set [5] (Mus musculus) came out at 0.92 µM.
As to `CCOc1ccc(-c2nc3ccc(-c4nc5ccc(N6CCN(C)CC6)cc5[nH]4)cc3[nH]2)cc1` [Hoechst 33342], the “dye signal following methanol treatment” value in data set [6] is “almost completely washed out”.
Turning to `COc1ccc(/C=C/C(=O)c2c(-c3ccccc3)c3ccccc3[nH]c2=O)cc1` [Ceranib-2], the IC50 in data set [5] is 0.78 µM.
